Data reported in PubChem BioAssay (NCI).
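Exposure lasted 48 hours, with cells grown in 96-well plates and compounds tested at five concentrations. At the TGI there is no net growth.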

What was measured:
Assay in all cases: inhibition of tumour cell growth, NCI panel, 48 h
PC-3 prostate = tested on: PC-3 prostate
SF-539 CNS = tested on: SF-539 CNS
COLO 205 colon = tested on: COLO 205 colon
HCT-116 colon = tested on: HCT-116 colon
NCI-H522 lung = tested on: NCI-H522 lung
DU-145 prostate = tested on: DU-145 prostate
KM12 colon = tested on: KM12 colon
MCF7 breast = tested on: MCF7 breast
CCRF-CEM leukemia = tested on: CCRF-CEM leukemia
SK-OV-3 ovarian = tested on: SK-OV-3 ovarian
K-562 leukemia = tested on: K-562 leukemia
UACC-257 melanoma = tested on: UACC-257 melanoma
SNB-19 CNS = tested on: SNB-19 CNS
MDA-MB-231 breast = tested on: MDA-MB-231 breast
SK-MEL-28 melanoma = tested on: SK-MEL-28 melanoma
TK-10 renal = tested on: TK-10 renal
OVCAR-8 ovarian = tested on: OVCAR-8 ovarian
A549 NSCLC = tested on: A549 NSCLC
OVCAR-4 ovarian = tested on: OVCAR-4 ovarian
NCI-H23 lung = tested on: NCI-H23 lung
HOP-92 NSCLC = tested on: HOP-92 NSCLC
LOX IMVI melanoma = tested on: LOX IMVI melanoma
ACHN renal = tested on: ACHN renal
MDA-MB-435 = tested on: MDA-MB-435
BT-549 breast = tested on: BT-549 breast
UACC-62 melanoma = tested on: UACC-62 melanoma
HCT-15 colon = tested on: HCT-15 colon
HS 578T breast = tested on: HS 578T breast
SK-MEL-2 melanoma = tested on: SK-MEL-2 melanoma
NCI-H460 lung = tested on: NCI-H460 lung
SF-268 CNS = tested on: SF-268 CNS
CAKI-1 renal = tested on: CAKI-1 renal
T-47D breast = tested on: T-47D breast
SW-620 colon = tested on: SW-620 colon
MDA-N = tested on: MDA-N
RPMI-8226 leukemia = tested on: RPMI-8226 leukemia
SF-295 CNS = tested on: SF-295 CNS
U251 CNS = tested on: U251 CNS
NCI/ADR-RES ovarian = tested on: NCI/ADR-RES ovarian
HL-60(TB) leukemia = tested on: HL-60(TB) leukemia
M14 melanoma = tested on: M14 melanoma
MOLT-4 leukemia = tested on: MOLT-4 leukemia
EKVX NSCLC = tested on: EKVX NSCLC
MALME-3M melanoma = tested on: MALME-3M melanoma
NCI-H226 lung = tested on: NCI-H226 lung
UO-31 renal = tested on: UO-31 renal
A498 renal = tested on: A498 renal
HT29 colon = tested on: HT29 colon
IGROV1 ovarian = tested on: IGROV1 ovarian
OVCAR-3 ovarian = tested on: OVCAR-3 ovarian
HCC-2998 colon = tested on: HCC-2998 colon
SNB-75 CNS = tested on: SNB-75 CNS
SN12C renal = tested on: SN12C renal
OVCAR-5 ovarian = tested on: OVCAR-5 ovarian
SK-MEL-5 melanoma = tested on: SK-MEL-5 melanoma
786-0 renal = tested on: 786-0 renal
RXF 393 renal = tested on: RXF 393 renal

Compound: COc1c(OC)c(OC)c(C(=O)/C=C/c2ccccc2)c(OC)c1OC
- TGI (PC-3 prostate): 31.1 µM
- TGI (SF-539 CNS): 30.9 µM
- TGI (COLO 205 colon): 31.9 µM
- TGI (HCT-116 colon): 18.5 µM
- TGI (NCI-H522 lung): 14.7 µM
- TGI (DU-145 prostate): 12 µM
- TGI (KM12 colon): 16.8 µM
- TGI (MCF7 breast): 24.1 µM
- TGI (CCRF-CEM leukemia): 18.1 µM
- TGI (SK-OV-3 ovarian): 32.9 µM
- TGI (K-562 leukemia): 55.5 µM
- TGI (UACC-257 melanoma): 34.3 µM
- TGI (SNB-19 CNS): 25.1 µM
- TGI (MDA-MB-231 breast): 35.6 µM
- TGI (SK-MEL-28 melanoma): 27.3 µM
- TGI (TK-10 renal): 26.4 µM
- TGI (OVCAR-8 ovarian): 34 µM
- TGI (A549 NSCLC): 46.2 µM
- TGI (OVCAR-4 ovarian): 30.7 µM
- TGI (NCI-H23 lung): 26.8 µM
- TGI (HOP-92 NSCLC): 17.9 µM
- TGI (LOX IMVI melanoma): 36.7 µM
- TGI (ACHN renal): 28.9 µM
- TGI (MDA-MB-435): 19.7 µM
- TGI (BT-549 breast): 18.1 µM
- TGI (UACC-62 melanoma): 24.2 µM
- TGI (HCT-15 colon): 23 µM
- TGI (HS 578T breast): > 100 µM
- TGI (SK-MEL-2 melanoma): 45 µM
- TGI (NCI-H460 lung): 21.9 µM
- TGI (SF-268 CNS): 22.1 µM
- TGI (CAKI-1 renal): 28.4 µM
- TGI (T-47D breast): 23.7 µM
- TGI (SW-620 colon): 31 µM
- TGI (MDA-N): 70.2 µM
- TGI (RPMI-8226 leukemia): 20.3 µM
- TGI (SF-295 CNS): 29.9 µM
- TGI (U251 CNS): 20.5 µM
- TGI (NCI/ADR-RES ovarian): 55.1 µM
- TGI (HL-60(TB) leukemia): 38.2 µM
- TGI (M14 melanoma): 36.7 µM
- TGI (MOLT-4 leukemia): 36.3 µM
- TGI (EKVX NSCLC): 35.5 µM
- TGI (MALME-3M melanoma): 30.1 µM
- TGI (NCI-H226 lung): 38.4 µM
- TGI (UO-31 renal): 22.2 µM
- TGI (A498 renal): 17.5 µM
- TGI (HT29 colon): 15.1 µM
- TGI (IGROV1 ovarian): 27.9 µM
- TGI (OVCAR-3 ovarian): 25.1 µM
- TGI (HCC-2998 colon): 29.7 µM
- TGI (SNB-75 CNS): 23.1 µM
- TGI (SN12C renal): 26.9 µM
- TGI (OVCAR-5 ovarian): 36.9 µM
- TGI (SK-MEL-5 melanoma): 26.3 µM
- TGI (786-0 renal): 21.6 µM

Compound: CC(C)(C)NC(=O)N1N=C(c2ccccc2)C1c1ccccc1 (centres undefined)
- TGI (PC-3 prostate): 56.5 µM
- TGI (SF-539 CNS): 41.4 µM
- TGI (COLO 205 colon): > 100 µM
- TGI (HCT-116 colon): 52.8 µM
- TGI (NCI-H522 lung): 35.5 µM
- TGI (DU-145 prostate): > 100 µM
- TGI (KM12 colon): > 100 µM
- TGI (MCF7 breast): > 100 µM
- TGI (CCRF-CEM leukemia): > 100 µM
- TGI (SK-OV-3 ovarian): > 100 µM
- TGI (UACC-257 melanoma): > 100 µM
- TGI (SNB-19 CNS): > 100 µM
- TGI (MDA-MB-231 breast): > 100 µM
- TGI (SK-MEL-28 melanoma): > 100 µM
- TGI (TK-10 renal): > 100 µM
- TGI (OVCAR-8 ovarian): > 100 µM
- TGI (A549 NSCLC): > 100 µM
- TGI (OVCAR-4 ovarian): > 100 µM
- TGI (NCI-H23 lung): > 100 µM
- TGI (HOP-92 NSCLC): 65 µM
- TGI (LOX IMVI melanoma): > 100 µM
- TGI (ACHN renal): > 100 µM
- TGI (BT-549 breast): > 100 µM
- TGI (UACC-62 melanoma): > 100 µM
- TGI (HCT-15 colon): 75.2 µM
- TGI (HS 578T breast): > 100 µM
- TGI (NCI-H460 lung): > 100 µM
- TGI (SF-268 CNS): > 100 µM
- TGI (CAKI-1 renal): 59.1 µM
- TGI (T-47D breast): > 100 µM
- TGI (SW-620 colon): > 100 µM
- TGI (MDA-N): > 100 µM
- TGI (RPMI-8226 leukemia): 46 µM
- TGI (SF-295 CNS): > 100 µM
- TGI (U251 CNS): > 100 µM
- TGI (NCI/ADR-RES ovarian): > 100 µM
- TGI (HL-60(TB) leukemia): > 100 µM
- TGI (M14 melanoma): > 100 µM
- TGI (EKVX NSCLC): > 100 µM
- TGI (MALME-3M melanoma): 45.6 µM
- TGI (NCI-H226 lung): > 100 µM
- TGI (UO-31 renal): 63.1 µM
- TGI (A498 renal): > 100 µM
- TGI (HT29 colon): 32.2 µM
- TGI (IGROV1 ovarian): > 100 µM
- TGI (OVCAR-3 ovarian): 50.3 µM
- TGI (HCC-2998 colon): > 100 µM
- TGI (SNB-75 CNS): > 100 µM
- TGI (SN12C renal): > 100 µM
- TGI (RXF 393 renal): 36.6 µM
- TGI (OVCAR-5 ovarian): > 100 µM
- TGI (SK-MEL-5 melanoma): 47 µM
- TGI (786-0 renal): 32 µM
